# From ChEMBL document CHEMBL2073782, “Comparative inhibitory effects of different compounds on rat oatpl (slc21a1)- and Oatp2 (Slc21a5)-mediated transport” (Pharm Res, 2002)
# T1: Oatp2 (Solute carrier organic anion transporter family member 1A4) (Rattus norvegicus, UniProt O35913)
# T1 sequence (O35913 whole entry): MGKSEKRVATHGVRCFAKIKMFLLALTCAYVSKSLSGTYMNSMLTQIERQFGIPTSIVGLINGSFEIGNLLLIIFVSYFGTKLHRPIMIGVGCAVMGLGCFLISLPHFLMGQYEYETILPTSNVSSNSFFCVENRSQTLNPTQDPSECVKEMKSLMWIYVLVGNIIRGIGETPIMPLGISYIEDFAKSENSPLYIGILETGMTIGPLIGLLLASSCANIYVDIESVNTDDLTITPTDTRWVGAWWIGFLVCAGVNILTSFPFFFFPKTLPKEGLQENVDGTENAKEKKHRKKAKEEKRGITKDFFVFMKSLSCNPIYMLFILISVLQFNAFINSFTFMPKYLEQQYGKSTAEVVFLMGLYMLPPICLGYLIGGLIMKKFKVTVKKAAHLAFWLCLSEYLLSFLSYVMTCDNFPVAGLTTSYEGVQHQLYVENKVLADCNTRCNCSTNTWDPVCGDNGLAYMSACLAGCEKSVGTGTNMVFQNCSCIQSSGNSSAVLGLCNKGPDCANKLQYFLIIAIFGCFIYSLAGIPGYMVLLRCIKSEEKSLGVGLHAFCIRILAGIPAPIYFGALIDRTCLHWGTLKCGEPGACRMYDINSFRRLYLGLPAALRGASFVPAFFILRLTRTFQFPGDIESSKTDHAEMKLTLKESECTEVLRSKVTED
# T2: Oatp1 (Solute carrier organic anion transporter family member 1A1) (Rattus norvegicus, UniProt P46720)
# T2 sequence (P46720 whole entry): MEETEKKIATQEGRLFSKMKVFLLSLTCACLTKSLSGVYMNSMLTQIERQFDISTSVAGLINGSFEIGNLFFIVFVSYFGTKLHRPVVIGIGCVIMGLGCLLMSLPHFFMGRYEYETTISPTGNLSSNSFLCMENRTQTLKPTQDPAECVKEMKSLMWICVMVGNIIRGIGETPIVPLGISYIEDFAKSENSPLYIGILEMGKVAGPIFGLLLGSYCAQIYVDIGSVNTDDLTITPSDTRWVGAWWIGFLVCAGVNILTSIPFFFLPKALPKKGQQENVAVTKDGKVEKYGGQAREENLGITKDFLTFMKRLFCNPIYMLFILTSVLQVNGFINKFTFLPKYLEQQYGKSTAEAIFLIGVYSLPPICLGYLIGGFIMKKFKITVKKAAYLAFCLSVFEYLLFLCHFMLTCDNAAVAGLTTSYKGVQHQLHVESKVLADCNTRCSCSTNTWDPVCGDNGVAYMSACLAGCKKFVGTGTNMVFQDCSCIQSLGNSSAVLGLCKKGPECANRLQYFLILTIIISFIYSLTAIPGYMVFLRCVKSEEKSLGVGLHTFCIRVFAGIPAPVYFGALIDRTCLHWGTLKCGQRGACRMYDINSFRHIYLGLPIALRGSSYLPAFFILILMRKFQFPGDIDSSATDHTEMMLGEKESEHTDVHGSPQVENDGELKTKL
# T3: Solute carrier organic anion transporter family member 1A4 (Rattus norvegicus, UniProt O35913)
# T3 sequence (O35913 whole entry): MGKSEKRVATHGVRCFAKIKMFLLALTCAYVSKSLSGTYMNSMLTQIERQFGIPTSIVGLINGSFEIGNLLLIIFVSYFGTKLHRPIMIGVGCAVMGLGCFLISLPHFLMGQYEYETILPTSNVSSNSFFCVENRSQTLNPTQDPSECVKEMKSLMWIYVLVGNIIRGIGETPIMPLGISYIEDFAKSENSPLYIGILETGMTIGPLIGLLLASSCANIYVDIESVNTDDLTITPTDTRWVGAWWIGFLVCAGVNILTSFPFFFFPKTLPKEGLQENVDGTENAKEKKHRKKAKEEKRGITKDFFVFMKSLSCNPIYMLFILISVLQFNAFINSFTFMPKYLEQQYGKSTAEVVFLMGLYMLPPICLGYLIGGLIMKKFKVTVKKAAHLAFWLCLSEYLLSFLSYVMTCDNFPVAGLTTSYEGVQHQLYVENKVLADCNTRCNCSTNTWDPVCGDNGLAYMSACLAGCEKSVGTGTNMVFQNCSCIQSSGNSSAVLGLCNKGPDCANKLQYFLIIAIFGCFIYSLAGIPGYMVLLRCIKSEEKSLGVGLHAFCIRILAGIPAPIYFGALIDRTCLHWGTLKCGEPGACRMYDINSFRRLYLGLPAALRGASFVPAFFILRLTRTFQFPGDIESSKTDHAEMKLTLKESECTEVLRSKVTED
# T4: Solute carrier organic anion transporter family member 1A1 (Rattus norvegicus, UniProt P46720)
# T4 sequence (P46720 whole entry): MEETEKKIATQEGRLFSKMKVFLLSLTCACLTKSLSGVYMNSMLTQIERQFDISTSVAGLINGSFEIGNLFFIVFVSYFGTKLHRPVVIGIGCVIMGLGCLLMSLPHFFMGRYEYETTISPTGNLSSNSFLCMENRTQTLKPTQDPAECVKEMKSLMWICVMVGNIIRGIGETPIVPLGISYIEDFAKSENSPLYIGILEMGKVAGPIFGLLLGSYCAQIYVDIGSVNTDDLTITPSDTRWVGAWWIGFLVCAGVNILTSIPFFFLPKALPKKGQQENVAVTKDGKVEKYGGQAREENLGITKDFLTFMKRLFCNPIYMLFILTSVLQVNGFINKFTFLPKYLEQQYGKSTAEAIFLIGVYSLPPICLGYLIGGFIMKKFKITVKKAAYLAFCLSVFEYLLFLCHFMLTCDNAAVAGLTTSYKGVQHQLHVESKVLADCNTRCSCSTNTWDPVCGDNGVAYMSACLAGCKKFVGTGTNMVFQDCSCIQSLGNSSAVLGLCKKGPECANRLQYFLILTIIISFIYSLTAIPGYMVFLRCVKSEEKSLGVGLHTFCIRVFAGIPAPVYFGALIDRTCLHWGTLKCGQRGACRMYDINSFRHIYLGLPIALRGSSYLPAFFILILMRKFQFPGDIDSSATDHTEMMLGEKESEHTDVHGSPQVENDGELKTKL
# B1: Solute carrier organic anion transporter family member 1A4 (Rattus norvegicus) (protein)
# chain: MGKSEKRVATHGVRCFAKIKMFLLALTCAYVSKSLSGTYMNSMLTQIERQFGIPTSIVGLINGSFEIGNLLLIIFVSYFGTKLHRPIMIGVGCAVMGLGCFLISLPHFLMGQYEYETILPTSNVSSNSFFCVENRSQTLNPTQDPSECVKEMKSLMWIYVLVGNIIRGIGETPIMPLGISYIEDFAKSENSPLYIGILETGMTIGPLIGLLLASSCANIYVDIESVNTDDLTITPTDTRWVGAWWIGFLVCAGVNILTSFPFFFFPKTLPKEGLQENVDGTENAKEKKHRKKAKEEKRGITKDFFVFMKSLSCNPIYMLFILISVLQFNAFINSFTFMPKYLEQQYGKSTAEVVFLMGLYMLPPICLGYLIGGLIMKKFKVTVKKAAHLAFWLCLSEYLLSFLSYVMTCDNFPVAGLTTSYEGVQHQLYVENKVLADCNTRCNCSTNTWDPVCGDNGLAYMSACLAGCEKSVGTGTNMVFQNCSCIQSSGNSSAVLGLCNKGPDCANKLQYFLIIAIFGCFIYSLAGIPGYMVLLRCIKSEEKSLGVGLHAFCIRILAGIPAPIYFGALIDRTCLHWGTLKCGEPGACRMYDINSFRRLYLGLPAALRGASFVPAFFILRLTRTFQFPGDIESSKTDHAEMKLTLKESECTEVLRSKVTED
# B2: Solute carrier organic anion transporter family member 1A1 (Rattus norvegicus) (protein)
# chain: MEETEKKIATQEGRLFSKMKVFLLSLTCACLTKSLSGVYMNSMLTQIERQFDISTSVAGLINGSFEIGNLFFIVFVSYFGTKLHRPVVIGIGCVIMGLGCLLMSLPHFFMGRYEYETTISPTGNLSSNSFLCMENRTQTLKPTQDPAECVKEMKSLMWICVMVGNIIRGIGETPIVPLGISYIEDFAKSENSPLYIGILEMGKVAGPIFGLLLGSYCAQIYVDIGSVNTDDLTITPSDTRWVGAWWIGFLVCAGVNILTSIPFFFLPKALPKKGQQENVAVTKDGKVEKYGGQAREENLGITKDFLTFMKRLFCNPIYMLFILTSVLQVNGFINKFTFLPKYLEQQYGKSTAEAIFLIGVYSLPPICLGYLIGGFIMKKFKITVKKAAYLAFCLSVFEYLLFLCHFMLTCDNAAVAGLTTSYKGVQHQLHVESKVLADCNTRCSCSTNTWDPVCGDNGVAYMSACLAGCKKFVGTGTNMVFQDCSCIQSLGNSSAVLGLCKKGPECANRLQYFLILTIIISFIYSLTAIPGYMVFLRCVKSEEKSLGVGLHTFCIRVFAGIPAPVYFGALIDRTCLHWGTLKCGQRGACRMYDINSFRHIYLGLPIALRGSSYLPAFFILILMRKFQFPGDIDSSATDHTEMMLGEKESEHTDVHGSPQVENDGELKTKL
# Experiments:
# [1] = target: T1, Oatp2 (Solute carrier organic anion transporter family member 1A4); assay: in vitro; conditions: pig, Oatp2-expressing LLC-PK1 cells, probe Digoxin
# [2] = target: T2, Oatp1 (Solute carrier organic anion transporter family member 1A1); assay: in vitro; conditions: pig, Oatp1-expressing LLC-PK1 cells, probe E217betaG
# [3] = target: T3, Solute carrier organic anion transporter family member 1A4; assay: TP_TRANSPORTER: inhibition of Digoxin uptake in Oatp2-expressing LLC-PK1 cells; type: functional, cell-based
# [4] = target: T4, Solute carrier organic anion transporter family member 1A1; assay: TP_TRANSPORTER: inhibition of E217betaG uptake in Oatp1-expressing LLC-PK1 cells; type: functional, cell-based
# [5] = target: T2, Oatp1 (Solute carrier organic anion transporter family member 1A1); assay: TP_TRANSPORTER: inhibition of E217betaG uptake (E217betaG: 0.1 uM, Tolbutamide: 1000 uM) in Oatp1-expressing LLC-PK1 cells; type: functional, cell-based; parameters: scale not given: the % may be the effect or the level left; conditions: pig, probe E217betaG, read-out: Activity
# [6] = target: T1, Oatp2 (Solute carrier organic anion transporter family member 1A4); assay: TP_TRANSPORTER: inhibition of Digoxin uptake (Digoxin: 0.05 uM, Tolbutamide: 1000 uM) in Oatp2-expressing LLC-PK1 cells; type: functional, cell-based; parameters: scale not given: the % may be the effect or the level left; conditions: pig, probe Digoxin, read-out: Activity
# [7] = substrate: C[C@H]1O[C@@H](O[C@H]2[C@@H](O)C[C@H](O[C@H]3[C@@H](O)C[C@H](O[C@H]4CC[C@@]5(C)[C@H](CC[C@@H]6[C@@H]5C[C@@H](O)[C@]5(C)[C@@H](C7=CC(=O)OC7)CC[C@]65O)C4)O[C@@H]3C)O[C@@H]2C)C[C@H](O)[C@@H]1O; assay: TP_TRANSPORTER: uptake in Oatp2-expressing LLC-PK1 cells; type: functional, cell-based
# [8] = substrate: C[C@]12CC[C@@H]3c4ccc(O)cc4CC[C@H]3[C@@H]1CC[C@@H]2O[C@@H]1O[C@H](C(=O)O)[C@@H](O)[C@H](O)[C@H]1O; assay: TP_TRANSPORTER: uptake in Oatp1-expressing LLC-PK1 cells; type: functional, cell-based
molecule,measurement,setting,value
COc1ccc2cc([C@H](C)C(=O)O)ccc2c1 [NAPROXEN],activity at 1000 µM,[1],52.2%
same,activity at 1000 µM,[2],19.9%
C=C[C@H]1C[N@@]2CC[C@H]1C[C@@H]2[C@@H](O)c1ccnc2ccc(OC)cc12 [QUINIDINE],Ki,[3],120 µM
C=C[C@H]1C[N@@]2CC[C@H]1C[C@H]2[C@H](O)c1ccnc2ccc(OC)cc12 [QUININE],Ki,[3],3.81 µM
CO[C@H]1/C=C/O[C@@]2(C)Oc3c(C)c(O)c4c(O)c(c(/C=N/N5CCN(C)CC5)c(O)c4c3C2=O)NC(=O)/C(C)=C\C=C\[C@H](C)[C@H](O)[C@@H](C)[C@@H](O)[C@@H](C)[C@H](OC(C)=O)[C@@H]1C [RIFAMPIN],Ki,[4],18.2 µM
same,Ki,[3],1.46 µM
CCCCNC(=O)NS(=O)(=O)c1ccc(C)cc1 [TOLBUTAMIDE],activity at 1000 µM,[5],32.9%
same,activity at 1000 µM,[6],47.3%
B1,Km,[7],0.279 µM
B2,Km,[8],11.2 µM
